Measured values: patent publication US10444227B2, “Neural networks formed from cells derived from pluripotent stem cells” (FUJIFILM Cellular Dynamics, Inc., priority 2014, dated 2019)
Entries after “also recorded” stand apart in the source; their conditions may differ.

System: iCell® DopaNeuron cultures
Experiment: Excitability pharmacology on network bursting, multi-electrode array (MEA) recording
Type: cell-based, human
Details: FIG. 11
From the text: The following methods may be used to culture neural cells on a Mestro Multielectrode Array (MEA). iCell® Neurons are thawed and plated into a 48-well MEA plate pre-coated with […] Polyethyleneimine (PEI; Sigma) solution. On day 1 post-plating, 100% of spent medium is replaced with Neurobasal-A medium (NBA; Life Technologies) +10% KnockOut Serum Replacement (KSR; Life Technologies). On day 5 post-plating, 50% of spent medium is replaced with NBA +10% KSR. On day 8 post-plating, baseline activity is recorded, cells are treated with compounds, and the activity is subsequently recorded.
Data analysis and acquisition may be performed using AxIS Software (Axion Integrated Studio, Axion BioSystems). At or after day 8 post-plating, the neuronal preparation may be suitable for data acquisition. Data acquisition can include a pre-application recording (baseline), a compound application recording, followed by a post-application recording (dose). Electrical activity may be acquired using the AxIS Software. The CDlneuronconfig.datastream file can ensure the appropriate data acquisition settings are loaded into the AxIS Software.
In these experiments, iCell® DopaNeurons, iCell® Neurons, and iCell® Astrocytes were obtained from Cellular Dynamics International, Inc. (Madison, Wis.), mixed and cultured on MEA plates as described in Example 1. Cells were cultured in BrainPhys media (Bardy et al., 2015) obtained from the Salk Institute (La Jolla, Calif.).
Two examples of excitability pharmacology, THIP (top) and L-655,708 (bottom), on iCell® DopaNeuron cultures are shown in FIG. 11. THIP activates tonic inhibition, while L-655,708 decreases tonic inhibition.

Row | SMILES | 'after-quiet' following network burst | continuous rumbling of activity | network burst intensity | network synchrony | post-bursting behaviors | post-burst rumbling time (duration of post-burst rumble) | time (duration) of the entire burst
1 | CCOC(=O)c1ncn2c1[C@@H]1CCCN1C(=O)c1cc(OC)ccc1-2 [L-655,708] | abolished | inducing a continuous rumble of activity that dominated activity; also recorded: inducing a continuous rumbling of activity | neither pharmacological agent altered network burst intensity | de-synchronized the network | both altered post-bursting behaviors | – | –
2 | Oc1noc2c1CCNC2 [THIP] | – | – | neither pharmacological agent altered network burst intensity | – | both altered post-bursting behaviors | shortened | shortened the time of the entire burst; also recorded: shortened the durations of the entire burst
